Data on 20 molecules can be found in US10138255B2, “Piperazine derivatives as HIV protease inhibitors” (Merck Sharp & Dohme Corp., priority 2014, dated 2018).

The structures appear in SMILES notation.

In this assay the test system is HIV-1 (H9IIIB strain). The assay is described as follows: Cell-Based HIV Infection Assay Using a Reporter (MT4-GFP cells). The following applies: Human immunodeficiency virus 1, inflection point (IP) of viral growth inhibition; MT4-GFP cells infected with HIV-1 H9IIIB; 50% normal human serum; mean of at least two independent experiments; read-out: Cell Based IP (50% NHS). The procedure: Cell-Based HIV Infection Assay Using a Reporter (“Cell-Based”):
MT4-GFP cells contain a stably integrated HIV long terminal repeat promoter directing the transcription of green fluorescent protein (GFP). When HIV infects the cell, GFP is produced and the cell becomes green. MT4-GFP cells (250,000 cells/mL) were bulk-infected with HIV-1 (H9IIIB strain) at low multiplicity of infection (MOI) in RPM 1640 media, supplemented with 10% FBS for 24 h. Cells were then washed once in RPMI 1640 plus 10% FBS and resuspended in RPMI plus 50% normal human serum (NHS). Test compounds were serial-diluted in DMSO using an ECHO liquid dispenser. A control well included a combination of three HIV drugs (an inhibitor of HIV protease, integrase strand transfer and a non-nucleoside reverse transcriptase inhibitor; triple drug). The infected MT4-GFP cells were added to a 384-well poly-D-lysine coated black plate with clear bottom in which the diluted test compounds were placed. The cells were seeded in the plate at 8,000 cells per well and the final DMSO concentration was 0.4%. Infected cells were quantified at both 24 and 48 h post incubation using an Acumen eX3 plate reader. Viral reproductive ratio (R0) was determined using the number of infected cells at 48 h divided by the number of infected cells at 24 h. Percent viral growth inhibition was calculated by [1−(R−Rtripledrug)/(RDMSO−Rtripledrug)]*100. Compound potency inflection point (IP) was determined with use of a 4-parameter dose response curve analysis.
Data shown in the table reflects the mean of at least two independent experiments.

Take `CO[C@H]1CC[C@H]([C@H](c2ccc(F)cc2)[C@H](N)C(=O)Nc2cncc(F)c2CC[C@H]2CN[C@@H]3CCCS(=O)(=O)N2C3)CC1` [Example 27, (2S,3R)-2-Amino-N-(4-(2-((6R,9S)-2,2-dioxido-2-thia-1,7-diazabicyclo[4.3.1]decan-9-yl)ethyl)-5-fluoropyridin-3-yl)-3-(4-fluorophenyl)-3-((1r,4R)-4-methoxycyclohexyl)propanamide]: the EC50 stood at 7.5 nM. Under `COC(=O)N[C@H](C(=O)Nc1ccc(F)c(F)c1CC[C@H]1CN[C@@H]2CCCS(=O)(=O)N1C2)[C@@H](c1ccc(F)cc1)C1CCOC(C)(C)C1` (stereo partly drawn) [Example 28, Methyl [(1S,2R)-2-(2,2-dimethyltetrahydro-2H-pyran-4-yl)-1-[(2-{2-[(6R,9S)-2,2-dioxido-2-thia-1,7-diazabicyclo[4.3.1]dec-9-yl]ethyl}-3,4-difluorophenyl)carbamoyl]-2-(4-fluorophenyl)ethyl]carbamate] stands 13 nM; under `COC(=O)N[C@H](C(=O)N[C@H]1CCC[C@@H]1CC[C@H]1CN[C@@H]2CCCS(=O)(=O)N1C2)[C@@H](c1ccc(Cl)cc1)C1CCOC(C)(C)C1` (stereo partly drawn) [Example 29, Methyl [(1S,2R)-2-(4-chlorophenyl)-2-(2,2-dimethyltetrahydro-2H-pyran-4-yl)-1-{[(1S,2R)-2-{2-[(6R,9S)-2,2-dioxido-2-thia-1,7-diazabicyclo[4.3.1]dec-9-yl]ethyl}cyclopentyl]carbamoyl}ethyl]carbamate], 23 nM.

Regarding `COC(=O)N[C@H](C(=O)Nc1cc(F)ccc1CC[C@H]1CN[C@@H]2CCCS(=O)(=O)N1C2)[C@@H](c1ccc(F)cc1)C1C[C@@H](C)O[C@@H](C)C1` (stereo partly drawn) [Example 30, Methyl [(1S,2R)-2-[(2R,6S)-2,6-dimethyltetrahydro-2H-pyran-4-yl]-1-[(2-{2-[(6R,9S)-2,2-dioxido-2-thia-1,7-diazabicyclo[4.3.1]dec-9-yl]ethyl}-5-fluorophenyl)carbamoyl]-2-(4-fluorophenyl)ethyl]carbamate], the EC50 was determined as 10 nM.

As to `C[C@@H]1C[C@H]([C@H](c2ccc(Cl)cc2)[C@H](N)C(=O)Nc2cncc(F)c2CC[C@H]2CN[C@@H]3CCCS(=O)(=O)N2C3)C[C@H](C)O1` [Example 31, (2S,3R)-2-Amino-3-(4-chlorophenyl)-3-((2R,4r,6S)-2,6-dimethyltetrahydro-2H-pyran-4-yl)-N-(4-(2-((6R,9S)-2,2-dioxido-2-thia-1,7-diazabicyclo[4.3.1]decan-9-yl)ethyl)-5-fluoropyridin-3-yl)propanamide], the EC50 stood at 6.3 nM.

Consider `COC(=O)N[C@H](C(=O)Nc1c(F)ccc(F)c1CC[C@H]1CN[C@@H]2CCCS(=O)(=O)N1C2)[C@@H](c1ccc(Cl)cc1)C1CCOCC1` [Example 32, Methyl [(1S,2R)-2-(4-chlorophenyl)-1-[(2-{2-[(6R,9S)-2,2-dioxido-2-thia-1,7-diazabicyclo[4.3.1]dec-9-yl]ethyl}-3,6-difluorophenyl)carbamoyl]-2-(tetrahydro-2H-pyran-4-yl)ethyl]carbamate], for which the EC50 amounted to 20 nM. To `N[C@H](C(=O)Nc1cccc(F)c1CCC1CNC2CCCS(=O)(=O)N1C2)[C@@H](c1ccc(F)cc1)c1ccc(C(F)(F)F)cc1` (stereo partly drawn) [Example 33, (βR)—N-{2-[2-(2,2-Dioxido-2-thia-1,7-diazabicyclo[4.3.1]dec-9-yl)ethyl]-3-fluorophenyl}-β-(4-fluorophenyl)-4-(trifluoromethyl)-L-phenylalaninamide] belongs 8.5 nM; to `COC(=O)N[C@H](C(=O)Nc1cccc(F)c1CCC1CNC2CCCS(=O)(=O)N1C2)[C@@H](c1ccc(F)cc1)c1ccc2c(c1)CCC2` (stereo partly drawn) [Example 34, Methyl [(1S,2S)-2-(2,3-dihydro-1H-inden-5-yl)-1-({2-[2-(2,2-dioxido-2-thia-1,7-diazabicyclo[4.3.1]dec-9-yl)ethyl]-3-fluorophenyl}carbamoyl)-2-(4-fluorophenyl)ethyl]carbamate], 23 nM. Regarding `COC(=O)N[C@H](C(=O)Nc1cccc(F)c1CCC1CNC2CCCS(=O)(=O)N1C2)[C@@H](c1ccc(F)cc1)c1cc(F)cc(F)c1` (stereo partly drawn) [Example 35, methyl [(1S,2S)-2-(3,5-difluorophenyl)-1-({2-[2-(2,2-dioxido-2-thia-1,7-diazabicyclo[4.3.1]dec-9-yl)ethyl]-3-fluorophenyl}carbamoyl)-2-(4-fluorophenyl)ethyl]carbamate], the EC50 amounted to 3.8 nM. To `N[C@H](C(=O)Nc1cccc(F)c1CCC1CNC2CCCS(=O)(=O)N1C2)[C@@H](c1ccc(Cl)cc1)C1CCOCC1` (stereo partly drawn) [Example 36, (βR)-4-chloro-N-{2-[2-(2,2-dioxido-2-thia-1,7-diazabicycio[4.3.1]dec-9-yl)ethyl]-3-fluorophenyl}-β-(tetrahydro-2H-pyran-4-yl)-L-phenylalaninamide] belongs 22 nM; to `COC(=O)N[C@H](C(=O)Nc1cccc(F)c1CCC1CNC2CCCS(=O)(=O)N1C2)[C@@H](c1ccc(Cl)cc1)C1CCOCC1` (stereo partly drawn) [Example 37, methyl [(1S,2R)-2-(4-chlorophenyl)-1-({2-[2-(2,2-dioxido-2-thia-1,7-diazabicyclo[4.3.1]dec-9-yl)ethyl]-3-fluorophenyl}carbamoyl)-2-(tetrahydro-2H-pyran-4-yl)ethyl]carbamate], 13 nM.

Regarding `CC(C)[C@H](c1ccc(Cl)cc1)[C@H](N)C(=O)Nc1cccc(F)c1CCC1CNC2CCCS(=O)(=O)N1C2` (stereo partly drawn) [Example 38, (βR)-4-chloro-N-{2-[2-(2,2-dioxido-2-thia-1,7-diazabicyclo[4.3.1]dec-9-yl)ethyl]-3-fluorophenyl}-β-(1-methylethyl)-L-phenylalaninamide], the EC50 was found to be 28 nM. Under `N[C@H](C(=O)Nc1cccc(F)c1CC[C@H]1CNC2CCCS(=O)(=O)N1C2)C1(c2ccc(F)cc2)CCC(F)(F)CC1` (stereo partly drawn) [Example 39, (2S)-2-amino-2-[4,4-difluoro-1-(4-fluorophenyl)cyclohexyl]-N-(2-{2-[(9S)-2,2-dioxido-2-thia-1,7-diazabicyclo[4.3.1]dec-9-yl]ethyl}-3-fluorophenyl)ethanamide] stands 200 nM; under `N[C@H](C(=O)Nc1cccc(F)c1CC[C@H]1CNC2CCCS(=O)(=O)N1C2)C1(c2ccc(Cl)cc2)CCOCC1` (stereo partly drawn) [Example 40, (2S)-2-amino-2-[4-(4-chlorophenyl)tetrahydro-2H-pyran-4-yl]-N-(2-{2-[(9S)-2,2-dioxido-2-thia-1,7-diazabicyclo[4.3.1]dec-9-yl]ethyl}-3-fluorophenyl)ethanamide], 99 nM. Consider `COC(=O)N[C@H](C(=O)Nc1cccc(F)c1CC[C@H]1CNC2CCCS(=O)(=O)N1C2)C1(c2ccc(F)cc2)CCC(F)(F)CC1` (stereo partly drawn) [Example 41, methyl {(1S)-1-[4,4-difluoro-1-(4-fluorophenyl)cyclohexyl]-2-[(2-{2-[(9S)-2,2-dioxido-2-thia-1,7-diazabicyclo[4.3.1]dec-9-yl]ethyl}-3-fluorophenyl)amino]-2-oxoethyl}carbamate], for which the EC50 stood at 43 nM. Under `COC(=O)N[C@H](C(=O)Nc1cccc(F)c1CC[C@H]1CNC2CCCS(=O)(=O)N1C2)C1(c2ccc(Cl)cc2)CCOCC1` (stereo partly drawn) [Example 42, methyl {(1S)-1-[4-(4-chlorophenyl)tetrahydro-2H-pyran-4-yl]-2-[(2-{2-[(9S)-2,2-dioxido-2-thia-1,7-diazabicyclo[4.3.1]dec-9-yl]ethyl}-3-fluorophenyl)amino]-2-oxoethyl}carbamate] stands 31 nM; under `COC(=O)N[C@H](C(=O)Nc1cccc(F)c1CC[C@H]1CNC2CCCS(=O)(=O)N1C2)[C@@H](c1ccc(Cl)cc1)[C@H]1CCOC(C)(C)C1` (stereo partly drawn) [Example 43, methyl {(1S,2R)-2-(4-chlorophenyl)-2-[(4S)-2,2-dimethyltetrahydro-2H-pyran-4-yl]-1-[(2-{2-[(9S)-2,2-dioxido-2-thia-1,7-diazabicyclo[4.3.1]dec-9-yl]ethyl}-3-fluorophenyl)carbamoyl]ethyl}carbamate], 8.5 nM.

For `N[C@H](C(=O)Nc1cccc(F)c1CCC1CNC2CCCS(=O)(=O)N1C2)[C@H](c1cncc(F)c1)c1ccc(Cl)c(F)c1` (stereo partly drawn) [Example 44, (βS)-4-chloro-N-{2-[2-(2,2-dioxido-2-thia-1,7-diazabicyclo[4.3.1]dec-9-yl)ethyl]-3-fluorophenyl}-3-fluoro-β-(5-fluoropyridin-3-yl)-L-phenylalaninamide], the EC50 was 4.5 nM. To `COc1ccc([C@H](c2ccc(Cl)cc2)[C@H](N)C(=O)Nc2cccc(F)c2CCC2CNC3CCCS(=O)(=O)N2C3)cn1` (stereo partly drawn) [Example 45, (βS)-4-chloro-N-{2-[2-(2,2-dioxido-2-thia-1,7-diazabicyclo[4.3.1]dec-9-yl)ethyl]-3-fluorophenyl}-β-(6-methoxypyridin-3-yl)-L-phenylalaninamide] belongs 3.8 nM; to `COC(=O)N[C@H](C(=O)Nc1cccc(F)c1CCC1CNC2CCCS(=O)(=O)N1C2)[C@H](c1cncc(F)c1)c1ccc(Cl)c(F)c1` (stereo partly drawn) [Example 46, methyl [(1S,2S)-2-(4-chloro-3-fluorophenyl)-1-({2-[2-(2,2-dioxido-2-thia-1,7-diazabicyclo[4.3.1]dec-9-yl)ethyl]-3-fluorophenyl}carbamoyl)-2-(5-fluoropyridin-3-yl)ethyl]carbamate], 9.1 nM.
